From PubChem BioAssay (NCI)
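The compound was tested at five concentrations on cells cultured in 96-well plates, with a 48-hour exposure period. GI50 marks 50% less growth. Definition used: TGI = concentration required for complete inhibition of growth.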

Key:
Assay in all cases: NCI-60 cell line screen, 48 h
[1] = system: SW-620 colon
[2] = system: RPMI-8226 leukemia
[3] = system: MALME-3M melanoma
[4] = system: U251 CNS
[5] = system: EKVX NSCLC
[6] = system: OVCAR-8 ovarian
[7] = system: A549 NSCLC
[8] = system: OVCAR-3 ovarian
[9] = system: MOLT-4 leukemia
[10] = system: LOX IMVI melanoma
[11] = system: COLO 205 colon
[12] = system: SNB-19 CNS
[13] = system: HL-60(TB) leukemia
[14] = system: MDA-MB-435
[15] = system: KM12 colon
[16] = system: OVCAR-4 ovarian
[17] = system: A498 renal
[18] = system: HCC-2998 colon
[19] = system: NCI/ADR-RES ovarian
[20] = system: CCRF-CEM leukemia
[21] = system: NCI-H460 lung
[22] = system: SK-MEL-5 melanoma
[23] = system: HOP-92 NSCLC
[24] = system: SNB-75 CNS
[25] = system: 786-0 renal
[26] = system: T-47D breast
[27] = system: SN12C renal
[28] = system: HCT-116 colon
[29] = system: PC-3 prostate

**Q.** What does the source list for Cc1cc(Nc2ccc3c(c2)OCO3)c2cc3c(cc2n1)OCO3?
**A.** GI50 [1]: 0.756 µM; TGI [1]: 15.4 µM; GI50 [2]: 0.526 µM; TGI [2]: 3.6 µM; GI50 [3]: 2.08 µM; TGI [3]: 20.9 µM; GI50 [4]: 2.8 µM; TGI [4]: 14.2 µM; GI50 [5]: 1.64 µM; TGI [5]: 13.2 µM; GI50 [6]: 3.13 µM; TGI [6]: 15.5 µM; GI50 [7]: 1.37 µM; TGI [7]: 11.6 µM; GI50 [8]: 0.701 µM; TGI [8]: 3.03 µM; GI50 [9]: 2.51 µM; TGI [9]: > 54.5 µM; GI50 [10]: 1.85 µM; TGI [10]: 11.5 µM; GI50 [11]: 1.31 µM; TGI [11]: 4.03 µM; GI50 [12]: 2.38 µM; TGI [12]: 20.9 µM; GI50 [13]: 0.745 µM; TGI [13]: > 19.9 µM; GI50 [14]: 0.265 µM; TGI [14]: 1.37 µM; GI50 [15]: 1.05 µM; TGI [15]: 14.4 µM; GI50 [16]: 5.2 µM; TGI [16]: 44.4 µM; GI50 [17]: 0.812 µM; TGI [17]: 4.72 µM; GI50 [18]: 2.33 µM; TGI [18]: 6.47 µM; GI50 [19]: 2.15 µM; TGI [19]: 18.5 µM; GI50 [20]: 1.92 µM; TGI [20]: 10.2 µM; GI50 [21]: 2.3 µM; TGI [21]: 12.3 µM; GI50 [22]: 0.821 µM; TGI [22]: 14.1 µM; GI50 [23]: 1.48 µM; TGI [23]: 9.07 µM; GI50 [24]: 0.766 µM; TGI [24]: 7.38 µM; GI50 [25]: 4.2 µM; TGI [25]: 17.8 µM; GI50 [26]: 4.69 µM; TGI [26]: 38.6 µM; GI50 [27]: 4.14 µM; TGI [27]: 31.3 µM; GI50 [28]: 1.42 µM; TGI [28]: 15.8 µM; GI50 [29]: 1.13 µM
